Experimental data published in PMC4890880 (ACS infectious diseases, 2016).
Like-named read-outs stand apart in the source and are kept apart here.

Assays:
HepG2-A16-CD81EGFP cells = details: for HepG2 Tox% @ 50 uM rep1 / HepG2 Tox% @ 50 uM rep2: human; for IC50: read-out: Tox_IC50, HepG2 cytotoxicity
[1] = system: Plasmodium berghei (Pb-Luc) exoerythrocytic-stage parasites; experiment: microbe, parasite or virus in culture
[2] = system: Plasmodium berghei (Pb-Luc) exoerythrocytic-stage parasites; details: for IC50: read-out: PbLuc_IC50; for normalized signal at concentration 0.000508053 / normalized signal at concentration 0.00152416 / normalized signal at concentration 0.00457247 / normalized signal at concentration 0.0137174 / normalized signal at concentration 0.0411523 / normalized signal at concentration 0.123457 / normalized signal at concentration 0.37037 / normalized signal at concentration 1.11111 / normalized signal at concentration 3.33333 / normalized signal at concentration 10: fraction of control
[3] = read-out: Inhibition% @ 50 uM rep1
[4] = read-out: Inhibition% @ 50 uM rep2
[5] = sheet 2nd round, maximal inhibition in dose response
[6] = second series of columns (replicate)

COc1ccc(CCN2CCC(CN(C)Cc3cnn(-c4ccccc4)c3)CC2)cc1 [MMV666069]
HepG2 Tox% @ 50 uM rep1 (HepG2-A16-CD81EGFP cells): 99% | HepG2 Tox% @ 50 uM rep2 (HepG2-A16-CD81EGFP cells): 100% | inhibition at 50 µM [1, 3]: 101% | inhibition at 50 µM [1, 4]: 103%

COc1nc(Nc2ccc(C(C)C)cc2)nc(OC)n1 [MMV007808]
HepG2 Tox% @ 50 uM rep1 (HepG2-A16-CD81EGFP cells): 94% | HepG2 Tox% @ 50 uM rep2 (HepG2-A16-CD81EGFP cells): 95% | inhibition at 50 µM [1, 3]: 101% | inhibition at 50 µM [1, 4]: 96%

CC(C)CNC(=O)c1c(N)n(CCc2ccccc2F)c2nc3ccccc3nc12 [MMV396744]
HepG2 Tox% @ 50 uM rep1 (HepG2-A16-CD81EGFP cells): 99% | HepG2 Tox% @ 50 uM rep2 (HepG2-A16-CD81EGFP cells): 99% | inhibition at 50 µM [1, 3]: 101% | inhibition at 50 µM [1, 4]: 103%

CCOc1ccc2nc(C)cc(Nc3ccc(N(C)C)cc3)c2c1 [MMV007020]
HepG2 Tox% @ 50 uM rep1 (HepG2-A16-CD81EGFP cells): 97% | inhibition at 50 µM [1, 3]: 100% | inhibition at 50 µM [1, 4]: 101%

COc1ccccc1C(=O)ON=C(N)Cc1cccc2ccccc12 [MMV666686]
HepG2 Tox% @ 50 uM rep1 (HepG2-A16-CD81EGFP cells): 101% | inhibition at 50 µM [1, 3]: 104% | inhibition at 50 µM [1, 4]: 104%

CCOc1ccc(Nc2c3ccccc3nc3ccccc23)cc1 [MMV000304]
HepG2 Tox% @ 50 uM rep1 (HepG2-A16-CD81EGFP cells): 102% | inhibition at 50 µM [1, 3]: 104% | inhibition at 50 µM [1, 4]: 104%

Oc1ccc2ccccc2c1CNc1nc2ccccc2[nH]1 [MMV011832]
HepG2 Tox% @ 50 uM rep1 (HepG2-A16-CD81EGFP cells): 100% | inhibition at 50 µM [1, 3]: 99% | inhibition at 50 µM [1, 4]: 101%

CN(C)CCCNCc1ccc(-c2ccc(F)c(Cl)c2)o1 [MMV020505]
HepG2 Tox% @ 50 uM rep1 (HepG2-A16-CD81EGFP cells): 96% | inhibition at 50 µM [1, 3]: 98% | inhibition at 50 µM [1, 4]: 98%

CCOc1cc2c(cc1OCC)C(c1cc(Cl)ccc1O)NCC2 (stereo not shown) [MMV000478]
HepG2 Tox% @ 50 uM rep1 (HepG2-A16-CD81EGFP cells): 101% | inhibition at 50 µM [1, 3]: 103% | inhibition at 50 µM [1, 4]: 104%

OCCNc1nc(Nc2ccc(Cl)c(Cl)c2)nc2ccccc12 [MMV001041]
HepG2 Tox% @ 50 uM rep1 (HepG2-A16-CD81EGFP cells): 98% | inhibition at 50 µM [1, 3]: 99% | inhibition at 50 µM [1, 4]: 101%

CCn1c(CN2CCN(Cc3ccccc3)CC2)nc2cc(NC(=O)c3cccs3)ccc21 [MMV020439]
HepG2 Tox% @ 50 uM rep1 (HepG2-A16-CD81EGFP cells): 98% | HepG2 Tox% @ 50 uM rep2 (HepG2-A16-CD81EGFP cells): 99% | inhibition at 50 µM [1, 3]: 99% | inhibition at 50 µM [1, 4]: 102%

COc1ccc2nc(C)cc(Nc3cccc(O)c3)c2c1 [MMV008212]
HepG2 Tox% @ 50 uM rep1 (HepG2-A16-CD81EGFP cells): 99% | inhibition at 50 µM [1, 3]: 99% | inhibition at 50 µM [1, 4]: 102%

C[C@@H]1CCCCO[C@H](CN(C)S(=O)(=O)c2ccc(F)cc2)[C@H](C)CN([C@H](C)CO)C(=O)c2cc(N(C)C)ccc2O1 [BRD-K77041516-001-01-2]
IC50 (HepG2-A16-CD81EGFP cells; sheet "2nd round"): > 10 µM | Tox_max_inhibition (%) (HepG2-A16-CD81EGFP cells; sheet "2nd round"): 4.38% | normalised signal at concentration 0.000508053 (first series) ([2]; concentration 0.000508053, first series): 1.187 | normalised signal at concentration 0.000508053 (second series) ([2]; concentration 0.000508053, second series): 0.9225 | normalised signal at concentration 0.00152416 (first series) ([2]; concentration 0.00152416, first series): 0.8332 | normalised signal at concentration 0.00152416 (second series) ([2]; concentration 0.00152416, second series): 0.8694 | normalised signal at concentration 0.00457247 (first series) ([2]; concentration 0.00457247, first series): 0.9468 | normalised signal at concentration 0.00457247 (second series) ([2]; concentration 0.00457247, second series): 0.8206 | normalised signal at concentration 0.0137174 (first series) ([2]; concentration 0.0137174, first series): 0.8125 | normalised signal at concentration 0.0137174 (second series) ([2]; concentration 0.0137174, second series): 0.9272 | normalised signal at concentration 0.0411523 (first series) ([2]; concentration 0.0411523, first series): 0.9511 | normalised signal at concentration 0.0411523 (second series) ([2]; concentration 0.0411523, second series): 0.9568 | normalised signal at concentration 0.123457 (first series) ([2]; concentration 0.123457, first series): 1.006 | normalised signal at concentration 0.123457 (second series) ([2]; concentration 0.123457, second series): 0.7947 | normalised signal at concentration 0.37037 (first series) ([2]; concentration 0.37037, first series): 0.8766 | normalised signal at concentration 0.37037 (second series) ([2]; concentration 0.37037, second series): 1.201 | normalised signal at concentration 1.11111 (first series) ([2]; concentration 1.11111, first series): 1.15 | normalised signal at concentration 1.11111 (second series) ([2]; concentration 1.11111, second series): 1.082 | normalised signal at concentration 3.33333 (first series) ([2]; concentration 3.33333, first series): 0.9005 | normalised signal at concentration 3.33333 (second series) ([2]; concentration 3.33333, second series): 1.135 | normalised signal at concentration 10 (first series) ([2]; concentration 10, first series of dose columns): 0.8572 | normalised signal at concentration 10 (second series) ([2]; concentration 10, second series of dose columns): 0.9617 | IC50 ([2]; sheet "2nd round", Broad compounds, dose response top concentration 10): > 10 µM | PbLuc_max_inhibition (%) ([2]; sheet "2nd round"): 21%

O=C(Nc1ccc2c(c1)[C@@H]1C[C@@H](CC(=O)N3CCc4ccccc4C3)O[C@@H](CO)[C@@H]1O2)c1ccc2c(c1)OCO2 [BRD-K15778794-001-01-7]
IC50 (HepG2-A16-CD81EGFP cells; sheet 2nd round): > 10 µM | Tox_max_inhibition (%) (HepG2-A16-CD81EGFP cells; [5]): 18% | normalized signal at concentration 0.000508053 ([2]; first series of columns): 1.025 | normalized signal at concentration 0.00152416 ([2]; first series of columns): 1.17 | normalized signal at concentration 0.00457247 ([2]; first series of columns): 0.8971 | normalized signal at concentration 0.0137174 ([2]; first series of columns): 1.186 | normalized signal at concentration 0.0411523 ([2]; first series of columns): 1.0917 | normalized signal at concentration 0.123457 ([2]; first series of columns): 0.8992 | normalized signal at concentration 0.37037 ([2]; first series of columns): 1.075 | normalized signal at concentration 1.11111 ([2]; first series of columns): 1.105 | normalized signal at concentration 3.33333 ([2]; first series of columns): 0.9056 | normalized signal at concentration 10 ([2]; first series of columns): 0.4372 | IC50 ([2]; sheet 2nd round, Pb-Luc exoerythrocytic stage, 10-point dose response, top concentration 10): > 10 µM | normalized signal at concentration 0.000508053 [2, 6]: 0.9828 | normalized signal at concentration 0.00152416 [2, 6]: 0.8672 | normalized signal at concentration 0.00457247 [2, 6]: 0.9127 | normalized signal at concentration 0.0137174 [2, 6]: 0.911 | normalized signal at concentration 0.0411523 [2, 6]: 0.8229 | normalized signal at concentration 0.123457 [2, 6]: 0.8258 | normalized signal at concentration 0.37037 [2, 6]: 0.9225 | normalized signal at concentration 1.11111 [2, 6]: 1.043 | normalized signal at concentration 3.33333 [2, 6]: 0.8183 | normalized signal at concentration 10 [2, 6]: 0.6797 | PbLuc_max_inhibition (%) [2, 5]: 56%
